Test results taken from US20110105565A1, “WATER SOLUBLE SMALL MOLECULE INHIBITORS OF THE CYSTIC FIBROSIS TRANSMEMBRANE CONDUCTANCE REGULATOR” (THE REGENTS OF THE UNIVERSITY OF CALIFORNIA, priority 2008, published 2011).
pIC50: −log10 of the molar value. Converted amounts (≈) assume the structure as drawn. Read-outs that look alike come from different tables or passages of the source.

Key:
[1] = target: human wildtype CFTR (Homo sapiens, UniProt P13569); test: Fluorescence cell-based assay of CFTR inhibition (YFP iodide influx, FRT cells); design: expressed in transfected cells; host or cells: Fisher rat thyroid (FRT) cells; conditions: given as ranges, read-out: IC50
Sequence of human wildtype CFTR (P13569 whole entry): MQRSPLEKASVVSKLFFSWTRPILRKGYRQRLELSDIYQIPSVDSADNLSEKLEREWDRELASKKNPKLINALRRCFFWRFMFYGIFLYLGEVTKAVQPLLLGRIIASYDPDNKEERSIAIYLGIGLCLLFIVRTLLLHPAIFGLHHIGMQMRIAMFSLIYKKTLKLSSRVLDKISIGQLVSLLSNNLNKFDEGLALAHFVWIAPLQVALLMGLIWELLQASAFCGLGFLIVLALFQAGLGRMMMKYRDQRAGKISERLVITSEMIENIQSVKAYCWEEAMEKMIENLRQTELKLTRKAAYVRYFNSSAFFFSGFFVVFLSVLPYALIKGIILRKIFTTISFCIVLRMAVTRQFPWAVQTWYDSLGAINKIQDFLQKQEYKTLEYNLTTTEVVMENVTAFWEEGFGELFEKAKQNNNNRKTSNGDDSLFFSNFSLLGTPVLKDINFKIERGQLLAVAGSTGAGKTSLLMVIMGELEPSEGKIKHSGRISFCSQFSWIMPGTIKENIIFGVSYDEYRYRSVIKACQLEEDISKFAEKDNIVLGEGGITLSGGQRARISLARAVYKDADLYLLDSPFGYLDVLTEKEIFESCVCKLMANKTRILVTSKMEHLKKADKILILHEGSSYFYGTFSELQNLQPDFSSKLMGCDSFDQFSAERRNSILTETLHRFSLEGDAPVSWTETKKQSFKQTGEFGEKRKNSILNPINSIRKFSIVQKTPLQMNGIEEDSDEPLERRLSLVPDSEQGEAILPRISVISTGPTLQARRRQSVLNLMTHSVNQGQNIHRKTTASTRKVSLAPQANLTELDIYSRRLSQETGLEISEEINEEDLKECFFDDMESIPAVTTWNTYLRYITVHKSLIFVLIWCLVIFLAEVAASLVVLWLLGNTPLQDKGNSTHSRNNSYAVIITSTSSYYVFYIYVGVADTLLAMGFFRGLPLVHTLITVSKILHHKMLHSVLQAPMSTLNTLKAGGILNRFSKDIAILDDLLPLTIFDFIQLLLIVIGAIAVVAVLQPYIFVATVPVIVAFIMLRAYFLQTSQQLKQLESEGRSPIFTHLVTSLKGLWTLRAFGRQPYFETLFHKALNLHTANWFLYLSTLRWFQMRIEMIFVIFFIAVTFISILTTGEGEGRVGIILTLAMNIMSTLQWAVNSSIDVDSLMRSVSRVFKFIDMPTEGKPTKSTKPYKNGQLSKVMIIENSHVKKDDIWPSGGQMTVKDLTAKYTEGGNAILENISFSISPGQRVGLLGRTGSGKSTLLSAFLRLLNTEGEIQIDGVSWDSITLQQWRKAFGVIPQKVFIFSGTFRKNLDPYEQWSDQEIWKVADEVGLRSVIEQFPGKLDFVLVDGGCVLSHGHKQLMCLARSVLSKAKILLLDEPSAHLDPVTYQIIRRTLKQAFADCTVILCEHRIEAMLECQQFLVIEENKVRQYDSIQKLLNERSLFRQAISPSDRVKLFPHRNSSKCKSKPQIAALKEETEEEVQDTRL
Description: CFTR inhibition by thiazolidinone derivative compounds was determined by a fluorescence cell-based assay utilizing doubly transfected cells expressing human wild-type CFTR and a yellow fluorescent protein (YFP) iodide sensor, as described (see, e.g., Galietta, et al., J. Physiol. 281:C1734-C1742 (2001)). Fisher rat thyroid (FRT) cells stably expressing wild-type human CFTR and YFP-H148Q were cultured on 96-well black-wall plates as described (see, e.g., Ma, et al., J. Clin. Invest. 110:1651-1658 (2002)). Cells in 96-well plates were washed three times, and then CFTR was activated by incubation for 15 minutes with an activating cocktail containing 10 μM forskolin, 20 μM apigenin, and 100 μM IBMX. Test compounds were added 5 minutes before assay of iodide influx in which cells were exposed to a 100 mM inwardly directed iodide gradient. YFP fluorescence was recorded for 2 seconds before and 12 seconds after creation of the iodide gradient. Initial rates of iodide influx were computed from the time course of decreasing fluorescence after the iodide gradient.
CFTR-facilitated iodide influx following extracellular iodide addition results in quenching of cytoplasmic YFP fluorescence.

[2] = Solubility measurements in saline (PBS, LC/MS); format: physicochemical
Description: Solubility measurements. A saturated compound solution was prepared by addition of DMSO stock to phosphate buffered saline (final DMSO 2%) followed by sonication for 5 min at 25° C. and shaking at room temperature for 1 h. After centrifugation at 15,000 rpm for 1 h, the supernatant was analyzed by LC/MS with concentration determined from area under the curve, standardized against calibration data. A standard curve for each compound was obtained by plotting area under the curve from chromatograms against inhibitor concentration. The concentration range of the standard solutions was 1-15 μM (for 5) and 1-100 μM (other compounds). In all cases, standard curves prepared were linear with r>0.998.
A saturated drug solution of a compound was prepared by addition of the compound in DMSO to phosphate buffered saline (PBS), followed by sonication for 5 min at 25° C. Final concentration of DMSO was <2%. Each saturated solution was centrifuged and filtered. The saturated supernatant solution was diluted and injected into LC/MS. The concentration was determined from area under the curve using a calibration curve.

[3] = test system: FRT cells; test: Cytotoxicity measurements, crystal violet staining of FRT cells; format: cell-based, rat; conditions: 48 h
Description: Cytotoxicity measurements. FRT cells in confluent monolayers were incubated with compounds for 2 days. Cells were washed 3 times, fixed (cytofix, 30 min) and stained with crystal violet (100 μl, 0.5%, 10 min) using standard procedures. Excess crystal violet was removed by washing, and dye was extracted with Sorenson's buffer (0.1 M sodium citrate, 50% ethanol, pH 4.2). Crystal violet was quantified by measurement of absorbance at 650 nm. The percentage crystal violet staining was determined from test wells measured 8 times, compared to blanks (wells not containing cells) and vehicle-treated cells.
Cytotoxicity analysis was performed for Tetrazolo-172, Oxo-172, α-Me-172 and Pyridine-NO-172 (Compound 17) and compared with CFTRinh-172 (Table 3). […] Crystal violet staining was reduced for Tetrazolo-172 and α-Me-172 at 50 μM.

SMILES: O=C1/C(=C/c2ccc(-c3nn[nH]n3)cc2)SC(=S)N1c1cccc(C(F)(F)F)c1 [Compound 6, (Z)-5-(4-(1H-tetrazol-5-yl)benzylidene)-2-thioxo-3-(3-(trifluoromethyl)phenyl)thiazolidin-4-one]
- pIC50 ([1]; Table 1, upper part, CFTR inhibitory activity): 6.00 to 7.00
- pIC50 ([1]; Table 2 summary table): 6.00 to 7.00
- increase of solubility in saline/water relative to CFTRinh-172 [2]: 11 fold
- Solubility in saline ([2]; Table 3, PBS, DMSO <2%): 189 µM (≈ 81.9 µg/mL)
- % Cell viability 20 μM ([3]; 20 μM, crystal violet staining): 87%
- Crystal violet staining at 50 μM (in words) ([3]; 50 μM): reduced
- % Cell viability 50 μM ([3]; 50 μM, crystal violet staining): 73%
